From the supplement of paper PMC10307832

The cell lines below were run with CC1(C)CCC(CN2CCN(c3ccc(C(=O)NS(=O)(=O)c4ccc(NCC5CCOCC5)c([N+](=O)[O-])c4)c(Oc4cnc5[nH]ccc5c4)c3)CC2)=C(c2ccc(Cl)cc2)C1 [Venetoclax] + CC(=O)Nc1cccc(-n2c(=O)n(C3CC3)c(=O)c3c(Nc4ccc(I)cc4F)n(C)c(=O)c(C)c32)c1 [Trametinib] (partner 0.02 µM) (assay: relative viability (nuclei count vs DMSO), 5 days (fraction); higher = more cells survive). Details: first compound 0.01 µM.
Outline: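 Lung cancer cell lines were pin-tool dosed in 1536-well plates on the day after seeding, with either a lone drug or a fixed anchor-drug dose plus five library-drug doses (not always all listed) in √10 steps. Nuclei were counted on 4× images after 5 days. Relative viability is the ratio of treated-well to vehicle-well nuclei counts, with each value a median of duplicate plates.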
Cell Line LOU-NH91 has a relative viability of 0.784. In the case of NCI-H647, the relative viability was 0.463. NCI-H23 gave a relative viability of 0.441. In the case of EMC-BAC-2, the relative viability was 0.915. Cell Line NCI-H2126 has a relative viability of 0.544. HCC-44 was tested, and the relative viability was 1.03. NCI-H1734 gave a relative viability of 0.588. NCI-H650 showed a relative viability of 0.875. With LK-2 the relative viability was 0.894. For NCI-H2228, the relative viability was 0.715. Work on NCI-H2342 yielded a relative viability of 0.77. For SK-MES-1, the relative viability was 0.615. NCI-H2170 gave a relative viability of 0.859. Cell Line SW 900 has a relative viability of 0.853. In the case of NCI-H1395, the relative viability was 1.05. Cell Line CAL-12T has a relative viability of 0.24. Work on NCI-H1793 yielded a relative viability of 0.334. NCI-H1944 gave a relative viability of 0.511. Cell Line NCI-H358 has a relative viability of 0.117.

Same assay, conditions: first compound 0.03162 µM
Cell Line NCI-H522 has a relative viability of 0.747. Work on PC-14 yielded a relative viability of 0.726. With NCI-H1666 the relative viability was 0.809. NCI-H1755 was tested, and the relative viability was 0.765. In the case of NCI-H2023, the relative viability was 0.552. With EPLC-272H the relative viability was 0.284. LCLC-97TM1 was tested, and the relative viability was 0.18. In the case of PC-3 [JPC-3], the relative viability was 0.685. Work on LOU-NH91 yielded a relative viability of 0.81. NCI-H647 showed a relative viability of 0.428. Work on NCI-H23 yielded a relative viability of 0.427. EMC-BAC-2 showed a relative viability of 0.965. For NCI-H2126, the relative viability was 0.618. For HCC-44, the relative viability was 1.11. With NCI-H1734 the relative viability was 0.739. For NCI-H650, the relative viability was 0.995. LK-2 gave a relative viability of 0.762. With NCI-H2228 the relative viability was 0.608. With NCI-H2342 the relative viability was 0.762. Work on SK-MES-1 yielded a relative viability of 0.636. With NCI-H2170 the relative viability was 0.97. In the case of SW 900, the relative viability was 0.711. In the case of NCI-H1648, the relative viability was 0.628. NCI-H1395 showed a relative viability of 0.944. Cell Line CAL-12T has a relative viability of 0.385. Cell Line NCI-H1793 has a relative viability of 0.46. NCI-H1944 showed a relative viability of 0.474. Cell Line NCI-H358 has a relative viability of 0.14.

Same assay, conditions: first compound 0.1 µM
Cell Line NCI-H522 has a relative viability of 0.674. Work on PC-14 yielded a relative viability of 0.726. NCI-H1666 showed a relative viability of 0.73. NCI-H1755 gave a relative viability of 0.768. NCI-H2023 was tested, and the relative viability was 0.558. For EPLC-272H, the relative viability was 0.238. Cell Line LCLC-97TM1 has a relative viability of 0.148. PC-3 [JPC-3] gave a relative viability of 0.678. In the case of LOU-NH91, the relative viability was 0.768. NCI-H647 gave a relative viability of 0.423. With NCI-H23 the relative viability was 0.365. EMC-BAC-2 was tested, and the relative viability was 0.887. NCI-H2126 showed a relative viability of 0.538. HCC-44 showed a relative viability of 1.04. In the case of NCI-H1734, the relative viability was 0.635. For NCI-H650, the relative viability was 0.892. Cell Line LK-2 has a relative viability of 0.596. Work on NCI-H2228 yielded a relative viability of 0.567. NCI-H2342 gave a relative viability of 0.979. SK-MES-1 was tested, and the relative viability was 0.536. With NCI-H2170 the relative viability was 0.841. For SW 900, the relative viability was 0.824. NCI-H1648 was tested, and the relative viability was 0.358. NCI-H1395 was tested, and the relative viability was 1.02. Work on CAL-12T yielded a relative viability of 0.357. With NCI-H1793 the relative viability was 0.367. NCI-H1944 was tested, and the relative viability was 0.394. Work on NCI-H358 yielded a relative viability of 0.106.

Same assay, conditions: first compound 0.3162 µM
For NCI-H522, the relative viability was 0.728. For PC-14, the relative viability was 0.642. NCI-H1666 was tested, and the relative viability was 0.824. NCI-H1755 showed a relative viability of 0.715. Cell Line NCI-H2023 has a relative viability of 0.485. EPLC-272H gave a relative viability of 0.259. LCLC-97TM1 gave a relative viability of 0.167. PC-3 [JPC-3] gave a relative viability of 0.683. In the case of LOU-NH91, the relative viability was 0.807. NCI-H647 was tested, and the relative viability was 0.399. NCI-H23 gave a relative viability of 0.346. EMC-BAC-2 was tested, and the relative viability was 0.857. NCI-H2126 was tested, and the relative viability was 0.566. HCC-44 was tested, and the relative viability was 1.04. Work on NCI-H1734 yielded a relative viability of 0.781. In the case of NCI-H650, the relative viability was 0.892. In the case of LK-2, the relative viability was 0.628. NCI-H2228 gave a relative viability of 0.453. With NCI-H2342 the relative viability was 0.839. Cell Line SK-MES-1 has a relative viability of 0.526. For NCI-H2170, the relative viability was 0.812. SW 900 gave a relative viability of 0.761. With NCI-H1648 the relative viability was 0.427. Cell Line NCI-H1395 has a relative viability of 1.06. Work on CAL-12T yielded a relative viability of 0.379. NCI-H1793 gave a relative viability of 0.335. In the case of NCI-H1944, the relative viability was 0.432. Cell Line NCI-H358 has a relative viability of 0.126.

Same assay, conditions: first compound 1 µM
NCI-H522 was tested, and the relative viability was 0.655. With PC-14 the relative viability was 0.645. With NCI-H1666 the relative viability was 0.858. Cell Line NCI-H1755 has a relative viability of 0.736. NCI-H2023 showed a relative viability of 0.477. In the case of EPLC-272H, the relative viability was 0.263. With LCLC-97TM1 the relative viability was 0.185. In the case of PC-3 [JPC-3], the relative viability was 0.666. For LOU-NH91, the relative viability was 0.707. Work on NCI-H647 yielded a relative viability of 0.433. In the case of NCI-H23, the relative viability was 0.346. EMC-BAC-2 was tested, and the relative viability was 0.906. For NCI-H2126, the relative viability was 0.521. HCC-44 was tested, and the relative viability was 0.999. For NCI-H1734, the relative viability was 0.614. NCI-H650 was tested, and the relative viability was 0.963. For LK-2, the relative viability was 0.639. Work on NCI-H2228 yielded a relative viability of 0.464. Cell Line NCI-H2342 has a relative viability of 0.819. With SK-MES-1 the relative viability was 0.554. Work on NCI-H2170 yielded a relative viability of 0.87. Work on SW 900 yielded a relative viability of 0.657. With NCI-H1648 the relative viability was 0.53. Work on NCI-H1395 yielded a relative viability of 1.05. CAL-12T was tested, and the relative viability was 0.278. NCI-H1793 gave a relative viability of 0.419.
